Data on two compounds can be found in patent US10736967B2, “Method of preparing cyclodextrin complexes” (Panaceanano, Inc., priority 2016, dated 2020).

Data set [1] is described as follows: Water solubility of salicylic acid by UV-VIS: loaded in γCD-MOF, without additive, or with γCD and KOH. In kind it is physicochemical. On the procedure: The dry, loaded CD-MOF samples were then dissolved in 10 mL water and stirred.
All water solubility shown in FIGS. 2-4 below were measured at room temperature.

The conditions of data set [2]: cited from earlier work.
Setting [3] is: 30% loading (150 mg salicylic acid) in a 500 mg γCD-MOF sample, room temperature, FIG. 3 curve 20.
Setting [4] is: added directly into a solution containing equivalent amounts of γCD and KOH (500 mg sample), room temperature, FIG. 3 curve 22.
Setting [5] is: un-complexed salicylic acid in the absence of a CD-MOF, room temperature, FIG. 3 curve 21.

`O=C(O)c1ccccc1O` [salicylic acid]: the “percentage of solubilized salicylic acid in 10 mL of water compared with no additive” value in data set [1] (100 mg CD-MOF sample, loading percentage range of about 25-500%, FIG. 2 curve 10 vs curve 11) is “higher”. Besides, the “amount of salicylic acid solubilized in 10 mL of water (maximum reached)” value in data set [1] (500 mg CD-MOF sample used as intermediate, room temperature, FIG. 4 curve 31) is reported as “up to 110 mg”. Further, the “percentage of solubilized salicylic acid in 10 mL of water compared with no additive and with γCD and KOH” value in data set [1] (500 mg CD-MOF sample, loading percentage 10-100%, FIG. 3 curve 20 vs curves 21 and 22) is recorded as “significantly higher”. Further, the “amount of salicylic acid solubilized in 10 mL of water” value in data set [1] (setting [3]) is “about 103 mg”; in data set [1] (setting [4]), “about 58.5 mg”; in data set [1] (setting [5]), “about 20 mg”. The results for the “percentage of solubilized salicylic acid in 10 mL of water” value in data set [1] (setting [3]), in data set [1] (setting [4]) and in data set [1] (setting [5]) were “about 69%”, “approximately 39%” and “approximately 13%”, respectively. The “maximum amount of salicylic acid dissolved in 10 mL of water” value in data set [1] (absence of any additive, room temperature, FIG. 4 curve 33) is “about 20 mg”.
Consider `OC[C@H]1O[C@@H]2O[C@H]3[C@H](O)[C@@H](O)[C@@H](O[C@H]4[C@H](O)[C@@H](O)[C@@H](O[C@H]5[C@H](O)[C@@H](O)[C@@H](O[C@H]6[C@H](O)[C@@H](O)[C@@H](O[C@H]7[C@H](O)[C@@H](O)[C@@H](O[C@H]1[C@H](O)[C@H]2O)O[C@@H]7CO)O[C@@H]6CO)O[C@@H]5CO)O[C@@H]4CO)O[C@@H]3CO` [α-CD, α cyclodextrin], for which the solubility in water result in data set [2] is given as “about 145 mg/mL”.
